Data: publication PMC6207684, “Structural reorganization of SHP2 by oncogenic mutations and implications for oncoprotein resistance to allosteric inhibition” (Nature Communications, 2018)

Key:
U2OS cells = assay: pERK induction by EGF stimulation in serum-starved U2OS cells, western blot; assay type: cell-based; settings: U2OS serum starved 48 hours; SHP099 10 µM for 2 hours; EGF 5 nM; lysed 10 min after stimulation
Method: or vehicle cont rol f or 2 hours, and t hen st imulat ed wit h EGF. Cells were lysed on ice 10 min
af t er st imulat ion, and pErklevels were analyzed by western blot. […]

[1] = tested on: PTPN11-null U2OS cells expressing SHP2^E76K; assay: Western blot pErk quantification; assay type: cell-based; settings: SHP2^E76K in PTPN11-null U2OS cells (other cancer mutants investigated)
Text: (§1) PTPN11−/−/− U2OS cells were generated using the methodology described by Zhang et al.[25]. In brief, CRISPR guides against the first three exons of the PTPN11 proto-oncogene were designed using the Sanger CRISPR database, cloned into the pSpCas9(BB)-2A-GFP vector, transfected into U2OS (ATCC® HTB-96^TM) cells using manufacturer-recommended Fugene®HD methodologies, and assayed for knockdown of SHP2 protein levels, via western blot, in bulk.
(§2) Mammalian SHP2 expression plasmids were designed from pCMV-SHP2 WT, which was provided as a gift from Ben Neel (Addgene plasmid #8381), using site-directed mutagenesis (QuikChange, Agilent; see Supplementary Table 4 for the sequences of all primers used in this study). Mutation acquisition and plasmid identity were confirmed via DNA sequencing.
(§3) Lysis was visually confirmed with light microscopy, and lysates were added to gel loading buffer and run on Novex^TM wedgewell^TM 12% Tris-Glycine gels (Invitrogen XP00122) at 180 V for 1 h. Proteins were transferred from gels to polyvinylidene difluoride membranes using an iBlot 2 Dry Blotting System (Thermo Fisher IB21001). After transfer, membranes were blocked with either 5% bovine serum albumin or 5% nonfat milk in tris-buffered saline with tween (TBST) at room temperature for 1 h and then incubated with primary antibody (CST 9101 pErk at 1:500 dilution, CST 9102 Erk at 1:500 dilution, CST 3752 SHP2 at 1:300 dilution, or Sigma A1978 β-Actin at 1:3000 dilution) in respective blocking solution overnight at 4 °C, washed 3 × with TBST for 5 min, incubated with secondary antibody (ECL^TM Anti-Rabbit GE NA934V or Anti-Mouse GE NXA931V at 1:10,000 dilution) in respective blocking solution for 1 h at room temperature, and washed 3 x with TBST for 5 min. Following final wash, membranes were imaged on a GE Amersham Imager 600 using SuperSignal® West Pico Chemiluminescent Substrate (Pierce 34080). Linear brightness and contrast adjustments were applied uniformly across the entire image, and band densities were quantified using Fiji[24]. Western blot images are representative of at least two replicates, which were performed on different days.

[2] = tested on: PTPN11-null U2OS cells expressing SHP2^D61V; assay: Western blot pErk quantification; assay type: cell-based; settings: SHP2^D61V in PTPN11-null U2OS cells (other cancer mutants investigated)
Text: as §1, §2, §3

[3] = tested on: PTPN11-null U2OS cells expressing SHP2^G60V; assay: Western blot pErk quantification; assay type: cell-based; settings: SHP2^G60V in PTPN11-null U2OS cells (other cancer mutants investigated)
Text: as §1, §2, §3

[4] = tested on: PTPN11-null U2OS cells expressing SHP2^F285S; assay: Western blot pErk quantification; assay type: cell-based; settings: read-out: IC50 for pErk reduction by SHP099; PTPN11-null U2OS cells harboring SHP2^F285S; 2 h treatment
Text: as §1, §2, §3

[5] = tested on: PTPN11-null U2OS cells re-expressing SHP2^WT; assay: Western blot pErk quantification; assay type: cell-based
Text: as §1, §2, §3

[6] = tested on: PTPN11-null U2OS cells expressing SHP2^S502P; assay: Western blot pErk quantification; assay type: cell-based; settings: SHP2^S502P in PTPN11-null U2OS cells; 50 μM SHP099
Text: as §1, §2, §3

PTPN11-null U2OS cells = assay: Western blot pErk quantification; assay type: cell-based; settings: 2 h treatment
Text: as §1
Lysis was visually confirmed with light microscopy, and lysates were added to gel loading buffer and run on Novex^TM wedgewell^TM 12% Tris-Glycine gels (Invitrogen XP00122) at 180 V for 1 h. Proteins were transferred from gels to polyvinylidene difluoride membranes using an iBlot 2 Dry Blotting System (Thermo Fisher IB21001). […] Linear brightness and contrast adjustments were applied uniformly across the entire image, and band densities were quantified using Fiji[24]. […]

wild-type U2OS cells = assay: Western blot pErk quantification; assay type: cell-based
Method: as §3

wild-type SHP2 = tested on: wild-type SHP2; design: method as in PMID 27362227; settings: biochemical assays; cited from earlier work
[7] = tested on: cancer cell lines that are dependent on receptor tyrosine kinases and wild-type SHP2; design: method as in PMID 27362227; settings: cited from earlier work

## CC1(N)CCN(c2cnc(-c3cccc(Cl)c3Cl)c(N)n2)CC1 [SHP099]
U2OS cells
  pERK induction in response to EGF stimulation: attenuated
[1]
  inhibition of Erk phosphorylation: does not significantly inhibit Erk phosphorylation
[2]
  inhibition of Erk phosphorylation: does not significantly inhibit Erk phosphorylation
[3]
  inhibition of Erk phosphorylation: does not significantly inhibit Erk phosphorylation
[4]
  IC50: 8 ± 2 µM
[5]; SHP2^WT-rescued PTPN11-null U2OS cells
  reduction of pErk levels by SHP099 (incomplete, maximal): ~ 65%
[5]; read-out: IC50 for pErk reduction by SHP099, PTPN11-null cells re-expressing SHP2^WT, 2 h treatment, western blot densitometry
  IC50: 4 ± 2 µM
[6]
  loss of pErk: little, if any, loss of pErk
PTPN11-null U2OS cells
  pErk levels upon SHP099 treatment (western blot): unaffected
wild-type U2OS cells; 2 h treatment
  pErk levels upon SHP099 treatment (western blot): dramatically reduces pErk levels
wild-type U2OS cells; read-out: IC50 for pErk reduction by SHP099, 2 h treatment, western blot densitometry
  IC50: 2 ± 1 µM
wild-type SHP2
  affinity for wild-type SHP2: nanomolar affinity
[7]
  antiproliferative activity: antiproliferative activity
